According to ChEMBL document CHEMBL1201862, “PubChem BioAssay data set” (2004):
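Test compounds were applied to cells in 96-well plates for 48 hours at 5 doses. Abbreviation: GI50, concentration required for 50% inhibition of growth.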 Calls of active or inactive are those of the source. Rule as the data show it: active = GI50 up to about 1.1 µM and inactive = higher.

What was measured:
Experiment in all cases: inhibition of tumour cell growth, NCI panel, 48 h
SK-MEL-5 = tested on: SK-MEL-5
IGROV-1 = tested on: IGROV-1
SF-268 = tested on: SF-268
RPMI-8226 = tested on: RPMI-8226
OVCAR-4 = tested on: OVCAR-4
TK-10 = tested on: TK-10
HT-29 = tested on: HT-29
RXF 393 = tested on: RXF 393
HCT-15 = tested on: HCT-15
SR = tested on: SR
UACC-62 = tested on: UACC-62
OVCAR-5 = tested on: OVCAR-5
UO-31 = tested on: UO-31
786-0 = tested on: 786-0
SK-MEL-2 = tested on: SK-MEL-2
MCF7 = tested on: MCF7
MDA-MB-231 = tested on: MDA-MB-231
Hs-578T = tested on: Hs-578T
PC-3 = tested on: PC-3
BT-549 = tested on: BT-549

SMILES | GI50 (SK-MEL-5) | GI50 (IGROV-1) | GI50 (SF-268) | GI50 (RPMI-8226) | GI50 (OVCAR-4) | GI50 (TK-10) | GI50 (HT-29) | GI50 (RXF 393) | GI50 (HCT-15) [µM] | GI50 (SR) | GI50 (UACC-62) | GI50 (OVCAR-5) | GI50 (UO-31) | GI50 (786-0) | GI50 (SK-MEL-2) | GI50 (MCF7) | GI50 (MDA-MB-231) | GI50 (Hs-578T) | GI50 (PC-3) | GI50 (BT-549)
CC(CCC(=O)O)c1ccc(Br)cc1 (centres undefined) | > 100 µM (inactive) | > 100 µM (inactive) | > 100 µM (inactive) | > 100 µM (inactive) | > 100 µM (inactive) | > 100 µM (inactive) | > 100 µM (inactive) | > 100 µM (inactive) | > 100 | > 100 µM (inactive) | > 100 µM (inactive) | > 100 µM (inactive) | > 100 µM (inactive) | > 100 µM (inactive) | > 100 µM (inactive) | – | – | – | – | –
[O-][S+](Nc1ccccc1)c1cccc(Cl)c1 (centres undefined) | 42.8 µM (inactive) | 46.3 µM (inactive) | 44.1 µM (inactive) | 43.5 µM (inactive) | – | > 100 µM (inactive) | > 100 µM (inactive) | 51.1 µM (inactive) | 29.6 | 25.5 µM (inactive) | – | > 100 µM (inactive) | 60.4 µM (inactive) | > 100 µM (inactive) | – | > 100 µM (inactive) | 66.1 µM (inactive) | 86.3 µM (inactive) | 65.9 µM (inactive) | –
COc1cc(C(C)(C)C)c(OC(=O)/C=C/C(=O)O/C=C/[N+](=O)[O-])c(C(C)(C)C)c1 | 35.3 µM (inactive) | 69.8 µM (inactive) | 30.2 µM (inactive) | > 100 µM (inactive) | – | 85.3 µM (inactive) | 21.1 µM (inactive) | 27.6 µM (inactive) | 17.8 | 63.8 µM (inactive) | 33.2 µM (inactive) | > 100 µM (inactive) | 28.1 µM (inactive) | 34.4 µM (inactive) | – | 13.5 µM (inactive) | 33.9 µM (inactive) | 28.6 µM (inactive) | – | –
O=C(O)c1cnc2[nH]ccn2c1=O | > 100 µM (inactive) | > 100 µM (inactive) | > 100 µM (inactive) | > 100 µM (inactive) | > 100 µM (inactive) | > 100 µM (inactive) | > 100 µM (inactive) | – | > 100 | > 100 µM (inactive) | > 100 µM (inactive) | > 100 µM (inactive) | > 100 µM (inactive) | > 100 µM (inactive) | – | > 100 µM (inactive) | > 100 µM (inactive) | – | > 100 µM (inactive) | > 100 µM (inactive)
O=C(O)c1cc2ccccc2c(/N=N\c2cc(C(F)(F)F)ccc2Cl)c1O | 25.5 µM (inactive) | 95.9 µM (inactive) | > 100 µM (inactive) | 17.8 µM (inactive) | 86.9 µM (inactive) | > 100 µM (inactive) | 77.6 µM (inactive) | 35.2 µM (inactive) | 83.8 | 24.8 µM (inactive) | – | > 100 µM (inactive) | 33.4 µM (inactive) | 56.1 µM (inactive) | 25.4 µM (inactive) | > 100 µM (inactive) | 18.3 µM (inactive) | 37.6 µM (inactive) | 48.6 µM (inactive) | –
O=C(/N=N/c1ccccc1Br)NNc1ccccc1Br | 48.4 µM (inactive) | 55.6 µM (inactive) | > 100 µM (inactive) | 33.8 µM (inactive) | 56.2 µM (inactive) | > 100 µM (inactive) | > 100 µM (inactive) | – | 61.2 | 32.8 µM (inactive) | 48.8 µM (inactive) | > 100 µM (inactive) | 38.9 µM (inactive) | 72.1 µM (inactive) | 35.4 µM (inactive) | – | 62.2 µM (inactive) | – | 38.2 µM (inactive) | 82.8 µM (inactive)
O=C1C=CC(=O)C2=C1[C@@H](O)C1CC=CC3C(=O)O[C@@H]2C31 (some centres undefined) | 20.6 µM (inactive) | 14.8 µM (inactive) | 43.1 µM (inactive) | 19.9 µM (inactive) | 13.2 µM (inactive) | 28.2 µM (inactive) | 24.3 µM (inactive) | 18 µM (inactive) | 19.2 | 4.65 µM (inactive) | 19.2 µM (inactive) | 74.3 µM (inactive) | 43.1 µM (inactive) | 26.2 µM (inactive) | 18.2 µM (inactive) | – | – | – | – | –
COC(=O)[C@@]1(C)/C(=N/NS(=O)(=O)c2ccc(C)cc2)CCC[C@@H]1C | > 100 µM (inactive) | > 100 µM (inactive) | > 100 µM (inactive) | 30.8 µM (inactive) | > 100 µM (inactive) | > 100 µM (inactive) | > 100 µM (inactive) | > 100 µM (inactive) | 16.3 | 19.8 µM (inactive) | > 100 µM (inactive) | > 100 µM (inactive) | > 100 µM (inactive) | > 100 µM (inactive) | > 100 µM (inactive) | – | – | – | – | –
COc1cc2c(c(OC)c1OC)[C@@H]1CCCCC[C@@H]1CCC2=O | 57.5 µM (inactive) | > 100 µM (inactive) | 76 µM (inactive) | 31.9 µM (inactive) | > 91.8 µM (inactive) | > 100 µM (inactive) | > 71.6 µM (inactive) | > 100 µM (inactive) | > 75 | 33.3 µM (inactive) | 78.9 µM (inactive) | > 100 µM (inactive) | > 100 µM (inactive) | > 71.3 µM (inactive) | > 92.9 µM (inactive) | – | – | – | – | –
